Measurements as given in patent publication US20240316012A1, “METHODS FOR TREATING LYMPHOMA” (Northwestern University, priority 2023, published 2024).

Assays:
[1] = system: ITK-SYK^+PD-1^− lymphoma cells; experiment: In vitro survival of PD-1 deficient lymphoma cells under inhibitor treatment; format: cell-based, mouse; conditions: FIGS. 10D-F
Protocol: Cell culture. Unless otherwise indicated, murine cells were cultured in DMEM containing 20% FCS. The following compounds were used for the in vitro experiments: glycolysis inhibitor 2-deoxy-D-glucose (D8375, Sigma), mTOR inhibitor Torin-1 (S2827, Selleckchem), HIF1α inhibitor PX-478 2HCl (S7612, Selleckchem), ATP citrate lyase inhibitor BMS-303141 (4609, Tocris), fatty acid synthase inhibitor FT113 (S6666, Selleckchem), and BET-p300/CBP dual inhibitor NE02734 (S9648, Selleckchem). Inhibitors were dissolved in DMSO or water, and the cell culture medium was supplemented with the indicated concentrations of the compound or DMSO/water (as control).
To determine whether ACLY activity is required for PD-1-deficient lymphoma cell survival, Applicants next incubated transformed ITK-SYK^+PD-1− T cells from tamoxifen-injected ITK-SYK^CD4-creERT2; Pdcd1^−/− mice with an ACLY inhibitor. This treatment killed the ITK-SYK^+PD-1^− lymphoma cells (FIG. 11F, p=0.0037).

[2] = system: PDCD1-mutant lymphoma cells (primary CTCL); experiment: Inhibitor treatment of human cells in vitro, division index, PDCD1-mutant CTCL cells; format: cell-based; conditions: 2-DG 1 mM, everolimus 0.1 μM, BMS-303141 10 μM; anti-CD3/anti-CD28 beads, 6 days; FIG. 7E
Protocol: (§1) FIGS. 7A-7H show ACLY dependency and AP-1 activation in human PDCD1 defective T-NHL. […] CNA, copy number aberrations. FIG. 7B GSEA for the indicated gene sets based on RNA-seq data from the 21 CTCL patients shown in (a). NES, normalized enrichment score; FDR, false discovery rate. […] P=one-way ANOVA and two-sided Student's t-test. Shown are the mean±SD and individual data points. […] FACS-sorted malignant cells were stimulated with anti-CD3/anti-CD28 beads, and 2-NBDG uptake was determined at the indicated time points. P=two-sided Student's t-test. Shown are the mean±SEM and individual data points. […] CFSE, carboxyfluorescein succinimidyl ester. P=two-sided Student's t-test. The data are presented as the mean±SEM and individual data points. […] Legend as in (5a). […] FIG. 7H GSEA for the indicated gene sets with RNA-seq data from 21 CTCL PDCD1mut” or “PDCD1 wt, and three patients with hyperprogression. NES, normalized enrichment score; FDR, false discovery rate. FIGS. 7A and 7B, Data from a single experiment with 21 patients. FIGS. 7C and 7D, Data from one experiment with three patients per group and three healthy donors. FIG. 7E, Data from one experiment with three patients and three healthy donors. FIGS. 7F and 7G, Data from one experiment with three patients per group. FIG. 7H, Data from a single experiment.
(§2) Isolation of primary human CTCL cells. This study was approved by the Northwestern University Institutional Review Board. Patients provided informed consent for inclusion in the study. […] The tumor burden for each patient was determined using well-validated clinical markers, taking whichever value was higher between Sezary cell counts or the CD26 negative cell number by clinical flow cytometry. These were analyzed in conjunction with white blood cell and absolute lymphocyte counts.
(§3) Inhibitor treatment of human cells in vitro Malignant CTCL cells and CD4^+ T cells from healthy donors were isolated as previously described. […] After 6 days, the cells were analyzed by flow cytometry, and the division index was determined using the FlowJo proliferation tool (v10.6, FlowJo LLC).

[3] = system: PD-1 wild-type tumors (primary CTCL); experiment: Inhibitor treatment of human cells in vitro, division index, PD-1 wild-type CTCL cells; format: cell-based; conditions: 2-DG 1 mM, everolimus 0.1 μM, BMS-303141 10 μM; 6 days; FIG. 7E
Protocol: as §1, §2, §3

Row | Structure (SMILES) | toxicity to PD-1 deficient lymphoma cells [1] | viability, division and proliferation of PDCD1-mutant cancer cells (relative division index) [2] | response of stage-matched PD-1 wild-type tumors (relative division index) [3]
1 | O=CC[C@@H](O)[C@H](O)[C@H](O)CO [2-DG, 2-deoxy-D-glucose] | toxic | significantly impaired cell proliferation | resistant
2 | COc1ccc(-c2ccccc2)cc1NS(=O)(=O)c1cc(Cl)cc(Cl)c1O [BMS-303141] |  | significantly impaired cell proliferation | resistant
